Laboratory results: patent US20030215352A1, “Method of controlling microbial contamination” (Church & Dwight Co., Inc., priority 2002, published 2003)
Like-named read-outs stand apart in the source and are kept apart here.

Columns and labels:
Details in all cases: 25° C.
C. albicans = tested on: C. albicans
Description: (§1) Absorbent products, of 2 in.×2 in., weighing about 1 gram each, and being of identical construction except that 0%, 2%, 4%, 6%, 8%, 10% and 12% (per gram of product) of sodium bicarbonate was incorporated therein are used for this example. […] Two ml of sterile water was added to each product. Each product was then inoculated with 0.1 ml of one of a bacterium or fungus selected from S. aureus (6.9×10^5 CFU/ml), E. coli (5.4×10^5 CFU/ml), P. aeruginosa (6.9×10^5 CFU/ml), and C. albicans (5×10^5 CFU/ml). Each inoculated product was incubated at 25° C. and kept moist in a petri dish. Microbial numbers were determined on days 7 and 14 Microbial numbers were determined by removing the product from the petri dish and placed in a bag with 9 ml of neutralizer broth, mixed and plated on Leethan Agar. These plates were then incubated for 48-72 hours at 30° C. and colonies on the plates were counted.

S. aureus = tested on: S. aureus
Description: as §1

P. aeruginosa = tested on: P. aeruginosa
Description: as §1

E. coli = tested on: E. coli
Description: as §1

[1] = Day 7, 2% sodium bicarbonate in absorbent product
[2] = Day 7, 4% sodium bicarbonate in absorbent product
[3] = Day 7, 6% sodium bicarbonate in absorbent product
[4] = Day 7, 8% sodium bicarbonate in absorbent product
[5] = Day 7, 10% sodium bicarbonate in absorbent product
[6] = Day 7, 12% sodium bicarbonate in absorbent product
[7] = Day 14, 2% sodium bicarbonate in absorbent product
[8] = Day 14, 4% sodium bicarbonate in absorbent product
[9] = Day 14, 6% sodium bicarbonate in absorbent product
[10] = Day 14, 8% sodium bicarbonate in absorbent product
[11] = Day 14, 10% sodium bicarbonate in absorbent product
[12] = Day 14, 12% sodium bicarbonate in absorbent product

Compound: O=C([O-])O.[Na+] [Sodium Bicarbonate, sodium bicarbonate]
- Colony Forming Units/ml C. albicans (C. albicans; [1]): 1,800 Colony Forming Units/ml
- Colony Forming Units/ml C. albicans (C. albicans; [2]): 5 Colony Forming Units/ml
- Colony Forming Units/ml C. albicans (C. albicans; [3]): <10 Colony Forming Units/ml
- Colony Forming Units/ml C. albicans (C. albicans; [4]): 70 Colony Forming Units/ml
- Colony Forming Units/ml C. albicans (C. albicans; [5]): <10 Colony Forming Units/ml
- Colony Forming Units/ml C. albicans (C. albicans; [6]): 30 Colony Forming Units/ml
- Colony Forming Units/ml C. albicans (C. albicans; [7]): 15 Colony Forming Units/ml
- Colony Forming Units/ml C. albicans (C. albicans; [8]): 450 Colony Forming Units/ml
- Colony Forming Units/ml C. albicans (C. albicans; [9]): <10 Colony Forming Units/ml
- Colony Forming Units/ml C. albicans (C. albicans; [10]): 3000 Colony Forming Units/ml
- Colony Forming Units/ml C. albicans (C. albicans; [11]): <10 Colony Forming Units/ml
- Colony Forming Units/ml C. albicans (C. albicans; [12]): <10 Colony Forming Units/ml
- Colony Forming Units/ml S. aureus (S. aureus; [1]): <10 Colony Forming Units/ml
- Colony Forming Units/ml S. aureus (S. aureus; [2]): <10 Colony Forming Units/ml
- Colony Forming Units/ml S. aureus (S. aureus; [3]): <10 Colony Forming Units/ml
- Colony Forming Units/ml S. aureus (S. aureus; [4]): <10 Colony Forming Units/ml
- Colony Forming Units/ml S. aureus (S. aureus; [5]): 5 Colony Forming Units/ml
- Colony Forming Units/ml S. aureus (S. aureus; [6]): <10 Colony Forming Units/ml
- Colony Forming Units/ml S. aureus (S. aureus; [7]): <10 Colony Forming Units/ml
- Colony Forming Units/ml S. aureus (S. aureus; [8]): <10 Colony Forming Units/ml
- Colony Forming Units/ml S. aureus (S. aureus; [9]): <10 Colony Forming Units/ml
- Colony Forming Units/ml S. aureus (S. aureus; [10]): 10 Colony Forming Units/ml
- Colony Forming Units/ml S. aureus (S. aureus; [11]): <10 Colony Forming Units/ml
- Colony Forming Units/ml S. aureus (S. aureus; [12]): <10 Colony Forming Units/ml
- Colony Forming Units/ml P. aeruginosa (P. aeruginosa; [1]): <10 Colony Forming Units/ml
- Colony Forming Units/ml P. aeruginosa (P. aeruginosa; [2]): <10 Colony Forming Units/ml
- Colony Forming Units/ml P. aeruginosa (P. aeruginosa; [3]): 50 Colony Forming Units/ml
- Colony Forming Units/ml P. aeruginosa (P. aeruginosa; [4]): 150 Colony Forming Units/ml
- Colony Forming Units/ml P. aeruginosa (P. aeruginosa; [5]): <10 Colony Forming Units/ml
- Colony Forming Units/ml P. aeruginosa (P. aeruginosa; [6]): <10 Colony Forming Units/ml
- Colony Forming Units/ml P. aeruginosa (P. aeruginosa; [7]): 15 Colony Forming Units/ml
- Colony Forming Units/ml P. aeruginosa (P. aeruginosa; [8]): <10 Colony Forming Units/ml
- Colony Forming Units/ml P. aeruginosa (P. aeruginosa; [9]): <10 Colony Forming Units/ml
- Colony Forming Units/ml P. aeruginosa (P. aeruginosa; [10]): <10 Colony Forming Units/ml
- Colony Forming Units/ml P. aeruginosa (P. aeruginosa; [11]): <10 Colony Forming Units/ml
- Colony Forming Units/ml P. aeruginosa (P. aeruginosa; [12]): <10 Colony Forming Units/ml
- Colony Forming Units/ml E. coli (E. coli; [1]): <10 Colony Forming Units/ml
- Colony Forming Units/ml E. coli (E. coli; [2]): <10 Colony Forming Units/ml
- Colony Forming Units/ml E. coli (E. coli; [3]): <10 Colony Forming Units/ml
- Colony Forming Units/ml E. coli (E. coli; [4]): <10 Colony Forming Units/ml
- Colony Forming Units/ml E. coli (E. coli; [5]): <10 Colony Forming Units/ml
- Colony Forming Units/ml E. coli (E. coli; [6]): <10 Colony Forming Units/ml
- Colony Forming Units/ml E. coli (E. coli; [7]): <10 Colony Forming Units/ml
- Colony Forming Units/ml E. coli (E. coli; [8]): <10 Colony Forming Units/ml
- Colony Forming Units/ml E. coli (E. coli; [9]): <10 Colony Forming Units/ml
- Colony Forming Units/ml E. coli (E. coli; [10]): <10 Colony Forming Units/ml
- Colony Forming Units/ml E. coli (E. coli; [11]): <10 Colony Forming Units/ml
- Colony Forming Units/ml E. coli (E. coli; [12]): <10 Colony Forming Units/ml
